Measured values published in PubChem BioAssay AID2060501 (Molecular Pharmacology Branch, DTP, NCI, 2025).
Where “and” joins values, the source holds several entries; their conditions need not be identical. Identical values can stand only once.

Test system: 282377-053-R-J1-PDC complex spheroids, viability
Experiment: Anticancer human tumor 282377-053-R-J1-PDC patient-derived colon adenocarcinoma cell line growth inhibition [GQUAD]
Settings: for viability, T/C: stronger effect = lower value
Text: DNA G-quadruplex Stabilizer Agents in Combinations in Complex Spheroids
A high-throughput screen of multi-cell type tumor spheroids was designed to identify active combinations of DNA G-quadruplex stabilizer agents and targeted small molecules. Complex spheroids include a stromal component modeled by human endothelial cells (HUVEC) and fibroblasts modeled by human mesenchymal stem cells (MSCs). The concentration ranges selected for each drug and investigational agent were based upon clinically achievable concentrations if the clinical Cmax of the agent was known.
Compounds. The drugs and investigational agents: pidnarulex (CX-5461; NSC782164), APTO-253 (NSC789042), BRACO-19 (NSC847499), peposertib (NSC802822), ceralasertib (NSC780249), elimusertib (NSC800525), camonsertib (NSC841442), AZD-1390 (NSC803789), olaparib (NSC753686), talazoparib (NSC767125), ART-558 (NSC835418), sotorasib (NSC818433), MRTX-1133 (NSC836407), SN-38 (NSC673596), topotecan (NSC609699), etoposide (NSC141540), doxorubicin (NSC123127), gemcitabine (NSC613327), 5-fluorouracil (NSC19893), paclitaxel (NSC125973), vemurafenib (NSC761431), panobinostat (NSC761190), R-306465 (JNJ-16241199; NSC773264), adavosertib (NSC754352), TP-3654 (NSC805149), carboplatin (NSC241240), KSQ-4279 (NSC840948), and staurosporine (NSC755774) were obtained from the National Cancer Institute (NCI) Developmental Therapeutics Program Chemical Repository (34). The FDA-approved anticancer drug set is available from the NCI Developmental Therapeutics Program. […] The stock solutions were prepared in dimethyl sulfoxide (DMSO, Sigma-Aldrich, St. Louis, MO, cat. D2650) at 800-fold the tested concentration and stored at -70 degrees C prior to their use. All drugs and investigational agents were tested over a range starting from a high concentration at or near the clinical Cmax and decreasing in half-log increments. If the clinical Cmax for an agent had not been determined, the highest concentration tested was 10 microM.
2.3 Cell Culture. All cells were maintained in an incubator at 37 degrees C and 5% CO2 with 95% humidity. The PDC lines were cultured according to standard operating procedures established by the NCI PDMR. All PDCs were thawed and cultured in Matrigel-coated flasks prepared with a working solution of 1X Ham's F-12 nutrient mix, without supplementation (Invitrogen, cat. 11765054), 100 U/mL penicillin-streptomycin (Invitrogen, cat. 15140122), and 2.5% Matrigel (Corning Inc., cat. 354248) for the first three passages. The 857933-349-R-J2-PDC line was cultured in 6C/Colon 1B media, which includes advanced DMEM/F-12 (Thermo Fisher Scientific, cat. 12634028), 10 mM HEPES (Thermo Fisher Scientific, cat. 15630080), 1X GlutaMAX supplement (Thermo Fisher Scientific, cat. 35050061), 0.1 mg/mL primocin (InvivoGen, cat. ant-pm-2), 10% defined fetal bovine serum, heat inactivated (HyClone Laboratories Inc., cat. SH30070.03HI), 50% L-WRN conditioned media (ATCC, cat. CRL-3276), 1.25 mM N-Acetyl-L-cysteine (Sigma-Aldrich, cat. A9165), 10 mM nicotinamide (Sigma-Aldrich, cat. N0636), 1X B-27 supplement (Thermo Fisher Scientific, cat. 17504044), 1X N-2 supplement (Thermo Fisher Scientific, cat. 17502048), 10 microM Y-27632 dihydrochloride (Tocris Bioscience, cat. 1254), and 50 ng/mL human EGF recombinant protein (Thermo Fisher Scientific, cat. PHG0311). The 485176-168-R4-J1-PDC line was cultured in Panc media, which includes all 6C/Colon 1B media components plus 100 ng/mL human FGF-10 (Thermo Fisher Scientific, cat. 100-26), 500 nM SB-431542 (Selleckchem, cat. S1067), and gastrin (Tocris, cat. 3006).
[…]
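Note: spheroids exposed to compounds for 7 days before readout.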
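Throughout, for viability, T/C: percent of vehicle DMSO control viability with 100% = untreated-like growth.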

For `O=c1[nH]cc(F)c(=O)[nH]1`, the viability, T/C (compound 0.0316 µM) was 94.9% and 109% and 94.2%, the viability, T/C (compound 0.1 µM) was 107% (2×) and 88.7% and the viability, T/C (compound 0.316 µM) was 107% and 102% and 96.5%. For the same compound, the viability, T/C (compound 1 µM) was 88.8% and 92.9% and 94.9%, the viability, T/C (compound 3.16 µM) was 87.9% and 80.7% and 79.4% and the viability, T/C (compound 10 µM) was 80.8% and 69.7% and 70.6%. For the same compound, the IC50 (curve of compound) was over 10000 nM.
In the case of `O=c1[nH]cc(F)c(=O)[nH]1` + Cc1[nH]c2ccc(F)cc2c1-c1nc2c3cccnc3c3ncccc3c2[nH]1, the IC50 (curve of first compound, second compound 0.0316 µM) is reported as over 10000 nM, the IC50 (curve of first compound, second compound 0.1 µM) is reported as over 10000 nM and the IC50 (curve of first compound, second compound 0.316 µM) is reported as over 10000 nM. For the same compound, the IC50 (curve of first compound, second compound 1 µM) was over 10000 nM, the IC50 (curve of first compound, second compound 3.16 µM) was over 10000 nM and the IC50 (curve of first compound, second compound 10 µM) was under 31.6 nM. It also gave a viability, T/C (second compound 0.0316 µM, first compound 0.0316 µM) of 92.8%, a viability, T/C (second compound 0.0316 µM, first compound 0.1 µM) of 104% and a viability, T/C (second compound 0.0316 µM, first compound 0.316 µM) of 126%. For the same compound, the viability, T/C (second compound 0.0316 µM, first compound 1 µM) was 88.8%, the viability, T/C (second compound 0.0316 µM, first compound 3.16 µM) was 78.2% and the viability, T/C (second compound 0.0316 µM, first compound 10 µM) was 74%. For the same compound, the viability, T/C (second compound 0.1 µM, first compound 0.0316 µM) was 110%, the viability, T/C (second compound 0.1 µM, first compound 0.1 µM) was 111% and the viability, T/C (second compound 0.1 µM, first compound 0.316 µM) was 114%. The viability, T/C (second compound 0.1 µM, first compound 1 µM) was 87.5%, the viability, T/C (second compound 0.1 µM, first compound 3.16 µM) was 84.1% and the viability, T/C (second compound 0.1 µM, first compound 10 µM) was 82%. It also gave a viability, T/C (second compound 0.316 µM, first compound 0.0316 µM) of 115%, a viability, T/C (second compound 0.316 µM, first compound 0.1 µM) of 106% and a viability, T/C (second compound 0.316 µM, first compound 0.316 µM) of 93.7%. It also gave a viability, T/C (second compound 0.316 µM, first compound 1 µM) of 95.1%, a viability, T/C (second compound 0.316 µM, first compound 3.16 µM) of 75.8% and a viability, T/C (second compound 0.316 µM, first compound 10 µM) of 69.3%. The viability, T/C (second compound 1 µM, first compound 0.0316 µM) was 108%, the viability, T/C (second compound 1 µM, first compound 0.1 µM) was 112% and the viability, T/C (second compound 1 µM, first compound 0.316 µM) was 117%. The viability, T/C (second compound 1 µM, first compound 1 µM) was 91.2%, the viability, T/C (second compound 1 µM, first compound 3.16 µM) was 76.4% and the viability, T/C (second compound 1 µM, first compound 10 µM) was 68.4%. It also gave a viability, T/C (second compound 3.16 µM, first compound 0.0316 µM) of 75.7%, a viability, T/C (second compound 3.16 µM, first compound 0.1 µM) of 80.2% and a viability, T/C (second compound 3.16 µM, first compound 0.316 µM) of 72%. For the same compound, the viability, T/C (second compound 3.16 µM, first compound 1 µM) was 49.9%, the viability, T/C (second compound 3.16 µM, first compound 3.16 µM) was 58.8% and the viability, T/C (second compound 3.16 µM, first compound 10 µM) was 54.1%. For the same compound, the viability, T/C (second compound 10 µM, first compound 0.0316 µM) was 41.1%, the viability, T/C (second compound 10 µM, first compound 0.1 µM) was 40.5% and the viability, T/C (second compound 10 µM, first compound 0.316 µM) was 50.8%. The viability, T/C (second compound 10 µM, first compound 1 µM) was 42%, the viability, T/C (second compound 10 µM, first compound 3.16 µM) was 40% and the viability, T/C (second compound 10 µM, first compound 10 µM) was 34.4%.
For `Cn1ncnc1[C@H]1c2n[nH]c(=O)c3cc(F)cc(c23)N[C@@H]1c1ccc(F)cc1`, the viability, T/C (compound 0.000999 µM) was 109% and 105% and 89.3%, the viability, T/C (compound 0.00316 µM) was 106% and 88.2% and 91.4% and the viability, T/C (compound 0.00999 µM) was 106% and 94.9% and 99.7%. The viability, T/C (compound 0.0316 µM) was 85% and 109% and 106%, the viability, T/C (compound 0.0999 µM) was 106% and 97.6% and 113% and the viability, T/C (compound 0.316 µM) was 96.5% and 113% and 105%. The IC50 (curve of compound) was over 316 nM.
In the case of `CC1COCCN1c1cc(-c2ccnn2C)c2ccnc(-c3ccn[nH]3)c2n1` (stereo not drawn), the viability, T/C (compound 0.0316 µM) is reported as 76.8% and 96.3% and 95.7%, the viability, T/C (compound 0.1 µM) is reported as 80.2% and 78.9% and 53% and the viability, T/C (compound 0.316 µM) is reported as 61.4% and 49% and 55.4%. The viability, T/C (compound 1 µM) was 43.9% and 49.3% and 38.2%, the viability, T/C (compound 3.16 µM) was 29.3% and 33% and 26.9% and the viability, T/C (compound 10 µM) was 20.9% and 28.2% and 23.2%. For the same compound, the IC50 (curve of compound) was 696 nM and 555 nM and 247 nM.
With `CC(=O)O[C@H]1C(=O)[C@@]2(C)[C@H]([C@H](OC(=O)c3ccccc3)[C@]3(O)C[C@H](OC(=O)[C@H](O)[C@@H](NC(=O)c4ccccc4)c4ccccc4)C(C)=C1C3(C)C)[C@]1(OC(C)=O)CO[C@@H]1C[C@@H]2O` the viability, T/C (compound 0.0316 µM) was 114% and 62.1% and 42.4%, the viability, T/C (compound 0.1 µM) was 98.5% and 13.8% and 13.7% and the viability, T/C (compound 0.316 µM) was 89% and 15.7% and 17%. The viability, T/C (compound 1 µM) was 4.35% and 20.7% and 17.9% and the viability, T/C (compound 3.16 µM) was 0.15% and 21.9% and 16.7%.
